Measured values: patent US8808760B2, “Extract from palm leaves and a method for producing the same” (Universiti Putra Malaysia, priority 2007, dated 2014)

Columns and labels:
[1] = tested on: L-NAME induced hypertensive rats; test: Morphology (body, kidney, heart weight), L-NAME rats; format: in vivo; conditions: mean ± SEM
Description: (§1) The organ protective properties of the palm leaves extract and palm leaves functional ingredients on heart, and kidneys are shown in the morphology Table 4 below. […] Kidney/BW were similar in all groups. […] However, in L-NAME+captopril rats had lower Heart/BW ratio versus L-NAME.

[2] = tested on: SHR (spontaneous/genetically hypertensive animals); test: Erythrocyte antioxidant enzymes (SOD, GSH-Px, CAT), SHR; format: in vivo, rats
Description: SOD, GSH-Px, and CAT is the first line of antioxidative enzyme defense against oxidative stress, converting reactive oxygen to hydrogen peroxide and water. SOD, GSH-Px, and CAT […] activity indicate […] oxidative stress in hypertensive animals supplemented with oil palm leaves extract.

normotensive animals [3] = test: Erythrocyte antioxidant enzymes (SOD, GSH-Px, CAT), normotensive animals; format: in vivo, rats
L-NAME rats = test: Serum nitric oxide, L-NAME rats; format: in vivo; design: unit not given here
[4] = tested on: SHR (spontaneously/genetically hypertensive rats); test: Morphology (body, kidney, heart weight), SHR; format: in vivo; conditions: mean ± SEM
[5] = tested on: SHR (spontaneously hypertensive rats); test: Serum nitric oxide, SHR; format: in vivo; design: unit not given here
normotensive rats = test: Serum nitric oxide, normotensive rats; format: in vivo; design: unit not given here
normotensive animals [6] = test: Morphology (body, kidney, heart weight), normotensive rats; format: in vivo; conditions: mean ± SEM
Description: as §1

[7] = tested on: SHR (spontaneous/genetically hypertensive animals); test: Organ antioxidant enzymes (kidney, heart, brain), SHR; format: in vivo, rats
Description: SOD, GSH-Px, and CAT is the first line of antioxidative enzyme defense against oxidative stress, converting reactive oxygen to hydrogen peroxide and water.

Work on `C[C@H](CS)C(=O)N1CCC[C@H]1C(=O)O` [Captopril, captopril] yielded a Final body weight [1] of 296.4 ± 5.97 g, a Heart [1] of 0.91 ± 0.07 g and a Heart/Body weight [1] of 3.096 ± 0.0003 mg/g. For the same compound, the Kidney [1] was 2.017 ± 0.07 g, the “Kidney/Body Weight” value [1] was 6.822 ± 0.0002 mg/g and the “Erythrocyte Catalase” value ([2]; Week 0) was 0.019 ± 0.0007 k/ml. For the same compound, the “Erythrocyte CuZn-SOD” value ([2]; Week 0) was 0.019 ± 0.0012 U/ml, the “Erythrocyte Glutathione Peroxidase” value ([2]; Week 0) was 31.47 ± 0.94 and the “Erythrocyte Catalase” value ([2]; Week 6) was 0.017 ± 0.0003 k/ml. For the same compound, the “Erythrocyte CuZn-SOD” value ([2]; Week 6) was 0.009 ± 0.0012 U/ml, the “Erythrocyte Glutathione Peroxidase” value ([2]; Week 6) was 12.69 ± 2.47 and the “Erythrocyte Catalase” value ([2]; Week 8) was 0.017 ± 0.0004 k/ml. For the same compound, the “Erythrocyte CuZn-SOD” value ([2]; Week 8) was 0.011 ± 0.0004 U/ml, the “Erythrocyte Glutathione Peroxidase” value ([2]; Week 8) was 28.77 ± 2.05 and the “Erythrocyte Catalase” value ([2]; Week 12) was 0.016 ± 0.0003 k/ml. For the same compound, the “Erythrocyte CuZn-SOD” value ([2]; Week 12) was 0.012 ± 0.0007 U/ml, the “Erythrocyte Glutathione Peroxidase” value ([2]; Week 12) was 34.63 ± 2.2 and the “Erythrocyte Catalase” value (normotensive animals [3]; Week 0) was 0.014 ± 0.0006 k/ml. The “Erythrocyte CuZn-SOD” value (normotensive animals [3]; Week 0) was 0.014 ± 0.0010 U/ml, the “Erythrocyte Glutathione Peroxidase” value (normotensive animals [3]; Week 0) was 16.5 ± 0.76 and the “Erythrocyte Catalase” value (normotensive animals [3]; Week 6) was 0.013 ± 0.0003 k/ml. The “Erythrocyte CuZn-SOD” value (normotensive animals [3]; Week 6) was 0.022 ± 0.0006 U/ml, the “Erythrocyte Glutathione Peroxidase” value (normotensive animals [3]; Week 6) was 21.1 ± 5.05 and the “Erythrocyte Catalase” value (normotensive animals [3]; Week 8) was 0.014 ± 0.0005 k/ml. The “Erythrocyte CuZn-SOD” value (normotensive animals [3]; Week 8) was 0.015 ± 0.0019 U/ml, the “Erythrocyte Glutathione Peroxidase” value (normotensive animals [3]; Week 8) was 9.3 ± 1.24 and the “Erythrocyte Catalase” value (normotensive animals [3]; Week 12) was 0.013 ± 0.0008 k/ml. The “Erythrocyte CuZn-SOD” value (normotensive animals [3]; Week 12) was 0.018 ± 0.0006 U/ml, the “Erythrocyte Glutathione Peroxidase” value (normotensive animals [3]; Week 12) was 26.2 ± 6.90 and the “nitric oxide values measured in serum” value (L-NAME rats; Week 0) was 0.402 ± 0.008. For the same compound, the “nitric oxide values measured in serum” value (L-NAME rats; Week 6) was 0.585 ± 0.082, the “nitric oxide values measured in serum” value (L-NAME rats; Week 8) was 0.742 ± 0.123 and the “nitric oxide values measured in serum” value (L-NAME rats; Week 12) was 0.44 ± 0.072. For the same compound, the Final body weight [4] was 259.09 ± 5.53 g, the Heart [4] was 1.16 ± 0.07 g and the Heart/Body weight [4] was 4.533 ± 0.0002 mg/g. For the same compound, the Kidney [4] was 2.074 ± 0.09 g, the “Kidney/Body Weight” value [4] was 8.139 ± 0.0004 mg/g and the “nitric oxide values measured in serum” value ([5]; Week 0) was 0.230 ± 0.02. For the same compound, the “nitric oxide values measured in serum” value ([5]; Week 6) was 0.425 ± 0.05, the “nitric oxide values measured in serum” value ([5]; Week 8) was 0.438 ± 0.08 and the “nitric oxide values measured in serum” value ([5]; Week 12) was 0.572 ± 0.02 +. For the same compound, the “nitric oxide values measured in serum” value (normotensive rats; Week 0) was 0.381 ± 0.023, the “nitric oxide values measured in serum” value (normotensive rats; Week 6) was 0.573 ± 0.024 and the “nitric oxide values measured in serum” value (normotensive rats; Week 8) was 0.455 ± 0.060. The “nitric oxide values measured in serum” value (normotensive rats; Week 12) was 0.525 ± 0.071, the Final body weight (normotensive animals [6]) was 291.4 ± 8.56 g and the Heart (normotensive animals [6]) was 1.02 ± 0.04 g. For the same compound, the Heart/Body weight (normotensive animals [6]) was 3.558 ± 0.0002 mg/g, the Kidney (normotensive animals [6]) was 2.140 ± 0.07 g and the “Kidney/Body Weight” value (normotensive animals [6]) was 7.370 ± 0.0003 mg/g. For the same compound, the “Organ Catalase” value ([7]; Heart) was 4.08 ± 0.458 k/mg protein, the “Organ CuZn-SOD” value ([7]; Heart) was 0.78 ± 0.301 U/mg protein and the “Organ GPx” value ([7]; Heart) was 3.20 ± 0.23 U/mg protein. For the same compound, the “Organ Catalase” value ([7]; Kidney) was 25.96 ± 2.04 k/mg protein, the “Organ CuZn-SOD” value ([7]; Kidney) was 0.80 ± 0.199 U/mg protein and the “Organ GPx” value ([7]; Kidney) was 2.02 ± 0.184 U/mg protein. The “Organ Catalase” value ([7]; brain) was 1.96 ± 0.27 k/mg protein, the “Organ CuZn-SOD” value ([7]; brain) was 1.26 ± 0.097 U/mg protein and the “Organ GPx” value ([7]; brain) was 2.87 ± 0.360 U/mg protein.
